Assay results: patent publication US9556153B1, “JAK1 inhibitors” (Eli Lilly and Company, priority 2015, dated 2017)

Tests used:
JAK1 = JAK1 (Homo sapiens, UniProt P23458); assay: Human whole blood assay: pSTAT3 (JAK1) in lymphocytes; type: cell-based; set-up: endogenous in cells; host or cells: human whole blood, CD4+ lymphocytes; conditions: HWB
Excerpt: Human Whole Blood Assays: Determination of pSTAT3 (JAK1) and pSTAT5 (JAK2) in Lymphocytes and Monocytes
Human whole blood (HWB) assays were developed and validated to determine the JAK1 and JAK2 selectivity of test compounds.
Dilute the test compounds, 10 points, (1:3) in DMSO 100% and a step down in PBS+0.1% BSA. Use tofacitinib as a reference compound in each plate, as well as a maximum signal (stimulated wells) and a minimum signal (no stimulated wells) in order to normalize data. Obtain a pool of HWB from 4 different healthy donors. Plate the blood in a 96 well plate using a Tecan Evo 96w and incubate with test compounds for 1 h at RT. After this time of incubation, stimulate HWB with both IL6 (206-IL, R&D System) and GM-CSF (PHC2015, Life Technologies) for 15 more minutes. […]
The final concentrations in the assay are the following: 100 μM for compounds, 50 μM for tofacitinib, 0.1 μg/mL IL6, 0.038 μg/mL GM-CSF and 1% DMSO. […] Incubate the antibodies for 1 h in dark at RT, then wash cells 2× and read on Cytometer Macsquant (Miltenyi Biotec). Gate the data on CD4+(lymphocytes) and CD4Low CD33Hi (monocytes), to measure the fluorescence from cells expressing pSTAT3 and pSTAT5 respectively. Analyze the data using FlowJo v_10 and the normalize the median of fluorescence versus maximum and minimum signal to determine the IC50s. […]

JAK2 = JAK2 (Homo sapiens, UniProt O60674); assay: AlphaScreen SureFire p-STAT5 (p-Tyr694/699)-EPO-JAK2 cell-based assay (UT-7 cells); set-up: purchased Invitrogen; conditions: EPO 45 ng/mL, n=5, read-out: IC50, EPO-stimulated pSTAT5 JAK2 cell-based assay
Chain of JAK2 (O60674 whole entry): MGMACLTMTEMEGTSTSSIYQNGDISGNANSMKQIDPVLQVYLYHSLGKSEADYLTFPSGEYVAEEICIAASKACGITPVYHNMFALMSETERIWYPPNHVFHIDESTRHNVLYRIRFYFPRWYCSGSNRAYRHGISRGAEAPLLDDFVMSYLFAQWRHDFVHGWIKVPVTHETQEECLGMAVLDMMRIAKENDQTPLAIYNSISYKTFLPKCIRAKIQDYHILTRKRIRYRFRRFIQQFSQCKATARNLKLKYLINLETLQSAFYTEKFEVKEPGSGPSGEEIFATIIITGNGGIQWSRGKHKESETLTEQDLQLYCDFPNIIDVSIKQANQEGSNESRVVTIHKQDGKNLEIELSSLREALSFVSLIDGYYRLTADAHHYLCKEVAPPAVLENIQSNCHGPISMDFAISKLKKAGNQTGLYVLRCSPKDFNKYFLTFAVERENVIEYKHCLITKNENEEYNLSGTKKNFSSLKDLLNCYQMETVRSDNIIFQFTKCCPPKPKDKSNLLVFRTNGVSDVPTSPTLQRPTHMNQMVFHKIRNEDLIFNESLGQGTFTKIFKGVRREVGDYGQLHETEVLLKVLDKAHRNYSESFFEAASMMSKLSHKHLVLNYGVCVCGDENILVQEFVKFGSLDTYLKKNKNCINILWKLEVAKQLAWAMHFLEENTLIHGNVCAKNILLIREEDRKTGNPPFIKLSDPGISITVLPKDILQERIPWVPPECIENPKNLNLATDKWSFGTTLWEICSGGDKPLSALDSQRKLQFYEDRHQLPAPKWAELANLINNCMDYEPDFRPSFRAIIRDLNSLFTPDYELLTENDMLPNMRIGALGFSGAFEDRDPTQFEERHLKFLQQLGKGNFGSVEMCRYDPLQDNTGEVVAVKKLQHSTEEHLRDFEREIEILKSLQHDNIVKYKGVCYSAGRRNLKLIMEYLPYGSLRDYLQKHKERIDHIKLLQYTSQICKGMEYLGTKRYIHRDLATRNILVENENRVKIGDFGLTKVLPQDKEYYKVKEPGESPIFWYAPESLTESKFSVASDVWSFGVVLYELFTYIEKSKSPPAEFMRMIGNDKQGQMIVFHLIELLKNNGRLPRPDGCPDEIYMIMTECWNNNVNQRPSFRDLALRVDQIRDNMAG
Protocol: AlphaScreen SureFire Protocol p-STAT5 (p-Tyr694/699)-EPO-JAK2 Cell-Based Assay
The fold selectivity of test compounds for JAK1 over JAK2 is determined by a cellular assay, in which EPO is used to activate JAK2-STAT5 pathway, and pSTAT5 is used as the readout.
Starve UT-7 cells overnight in DMEM medium with 0.5% […] (FBS) and 1× Pen/Strep at 37° C. (without GM-CSF). Plate 50000 cells per well in BD 96 well black plates with clear bottoms (in medium without FBS and GM-CSF). Maintain the plates at RT for 30-60 minutes before incubating overnight at 37° C. and 5% CO2. Count cells using Vi-Cell counter, use a cell suspension at 500000 cells/mL and plated 100 μL/well in […] Biocoat plates Catalog #354640. […]
Follow the following steps sequentially: make acceptor mix (activation buffer/reaction buffer/acceptor beads); transfer 4 μL lysate from 96 well plates to 384 well-Proxiplate; add 5 μL acceptor mix to 384 proxiplate plate(s) with multidrop combi; seal plates with aluminum seal; shake 1-2 minutes on plate shaker; incubate plate at RT for 2 hr with gentle shaking; make donor mix (donor beads in dilution buffer); add 2 μl donor mix to assay plates with multidrop combi; seal plates with aluminum seal; shake 1-2 minutes on plate shaker; incubate at RT for 2 hr with gentle shaking; read plate with Envision; protocol AlphaScreen Surefire 384.

Chain of JAK1 (P23458 whole entry): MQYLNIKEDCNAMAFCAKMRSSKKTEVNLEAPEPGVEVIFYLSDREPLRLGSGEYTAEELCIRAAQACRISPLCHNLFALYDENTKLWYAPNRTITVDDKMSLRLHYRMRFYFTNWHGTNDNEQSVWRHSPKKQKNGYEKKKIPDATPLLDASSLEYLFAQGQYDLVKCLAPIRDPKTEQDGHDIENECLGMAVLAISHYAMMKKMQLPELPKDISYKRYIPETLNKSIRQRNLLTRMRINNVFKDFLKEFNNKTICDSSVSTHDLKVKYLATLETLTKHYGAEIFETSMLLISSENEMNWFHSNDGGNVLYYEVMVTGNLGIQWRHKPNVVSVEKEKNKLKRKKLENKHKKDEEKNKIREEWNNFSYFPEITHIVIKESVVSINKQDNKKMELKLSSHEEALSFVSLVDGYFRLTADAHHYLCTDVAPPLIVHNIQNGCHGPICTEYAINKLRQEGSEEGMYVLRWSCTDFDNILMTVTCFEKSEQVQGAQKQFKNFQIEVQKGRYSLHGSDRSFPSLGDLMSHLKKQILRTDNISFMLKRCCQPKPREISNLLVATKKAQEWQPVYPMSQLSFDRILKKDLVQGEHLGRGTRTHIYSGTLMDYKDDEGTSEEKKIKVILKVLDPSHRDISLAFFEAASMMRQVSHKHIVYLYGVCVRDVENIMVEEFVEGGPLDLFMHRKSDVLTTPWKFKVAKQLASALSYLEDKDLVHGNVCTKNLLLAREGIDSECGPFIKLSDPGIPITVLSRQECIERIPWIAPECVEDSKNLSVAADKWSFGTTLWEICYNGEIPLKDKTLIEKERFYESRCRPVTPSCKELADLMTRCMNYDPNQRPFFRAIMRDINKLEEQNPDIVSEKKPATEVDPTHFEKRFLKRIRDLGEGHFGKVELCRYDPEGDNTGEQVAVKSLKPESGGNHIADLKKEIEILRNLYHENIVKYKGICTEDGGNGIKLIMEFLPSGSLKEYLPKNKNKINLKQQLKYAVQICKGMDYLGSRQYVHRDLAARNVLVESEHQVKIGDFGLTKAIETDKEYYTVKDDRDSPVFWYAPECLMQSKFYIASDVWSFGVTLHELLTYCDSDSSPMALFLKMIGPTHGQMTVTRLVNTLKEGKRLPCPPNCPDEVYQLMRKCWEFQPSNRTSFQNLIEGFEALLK

Cc1cc(Nc2cc(O[C@H]3CC[C@@H](NC[C@@H](O)C(F)(F)F)CC3)cc3c2ncn3C)nn1C [Example 1, (2R)-3-{[cis-4-({4-[(1,5-Dimethyl-1H-pyrazol-3-yl)amino]-1-methyl-1H-benzimidazol-6-yl}oxy)cyclohexyl]amino}-1,1,1-trifluoropropan-2-ol]
IC50 (JAK1; IL6 stimulated, CD4+ lymphocytes, n=3): 2.4 ± 0.64 µM | potency for JAK1 over JAK2 in a human whole blood assay (JAK1; JAK1 over JAK2): approximately 5 × | IC50 (JAK2): 11.8 µM
